Measurements as given in PMC12363342, “Investigating the N-terminal linker histone H1 subtypes as substrates for JmjC lysine demethylases” (RSC Chemical Biology, 2025).

Legend:
Details in all cases: 2 μM KDM, 10 μM H1/H3 peptide, 10 μM FAS, 100 μM LAA, 20 μM 2OG, 50 mM HEPES pH 7.5, 2 h, room temperature, M (mono-) initial methylation state
[1] = test system: KDM3A; assay: LC-MS demethylation activity assay, KDM3A; assay type: biochemical, human
Protocol: (§1) The substrate specificity of JmjC KDMs for H1 was examined using liquid chromatography coupled to mass spectrometry (LC-MS) assays. The H1 peptides (10 μM) were incubated with the recombinant KDM (2 μM) in HEPES buffer at pH 7.5 at room temperature for 2 h, in the presence of ferrous(II) ammonium sulfate (FAS, 10 μM), sodium ascorbate (LAA, 100 μM) and 2OG (20 μM), and then quenched with formic acid. N^ε-Methylated H3K9 and H3K36 peptides were used as positive controls (Fig. 3–5 and Fig. S2–S6).[26]
(§2) The catalytic domains of the JmjC KDMs used were recombinantly produced as reported in either Escherichia coli (KDM4AM1-L359,[38] KDM4DM1-L359,[39] KDM4EM1-R336,[30] KDM6BD1141–E1590[40] and KDM3CL2157-L2500) or Sf9 cells (KDM3AT515–S1317, KDM3B882–1761, and KDM5DM1-D775) as N-terminally His6-tagged proteins. […] To produce proteins, DNA sequences encoding for KDM3A, KDM3B and KDM5D were inserted into the pFB-LIC vector, containing a TEV-protease cleavable N-terminal 6x-histidine tag via ligation independent cloning (LIC). The resultant plasmids were transformed into baculovirus and Sf9 cells ([…]) which were infected with the virus stock. The cells were grown at 27 °C and 90 rpm for 70 h. Cells were then harvested and suspended in 100 mL of lysis buffer (50 mM HEPES-NaOH, pH 7.4, 500 mM NaCl, 20 mM imidazole, 0.5 mM Tris (2-carboxyethyl)phosphine (TCEP), 5% (v/v) glycerol). […] The supernatant was loaded onto a Ni-NTA gravity column, washed with 10 column volume of lysis buffer and eluted using the elution buffer (50 mM HEPES-NaOH, pH 7.4, 500 mM NaCl, 300 mM imidazole, 0.5 mM TCEP, 5% (v/v) glycerol). The eluted protein was further purified using S200 gel filtration column chromatography (50 mM HEPES-NaOH, pH 7.4, 150 mM NaCl, 0.5 mM TCEP and 5% glycerol). Protein purity was analysed by SDS-PAGE and further confirmed by mass spectrometry. Selected fractions were pooled, concentrated and stored at −80 °C.
(§3) All reagents were purchased from Sigma Aldrich and were of the highest grade available. Ferrous(II) ammonium sulfate (FAS) solutions were prepared freshly by dissolving FAS to 400 mM in 20 mM HCl with subsequent dilution to 1 mM using deionized water. Fresh 2OG (10 mM) and LAA (50 mM) solutions were prepared by dissolving the solids in deionised water. All enzyme reactions were performed in 384-well plates (Greiner Bio-One) with a final reaction volume of 50 μL. Substrate mixtures contained 50 mM HEPES pH 7.5, LAA (100 μM), FAS (10 μM), 2OG (20 μM) and an H1 isoform peptide (10 μM). Reactions were initiated by the addition of enzyme to a final concentration of 2.0 μM. After 2 h, the reactions were stopped by the addition of 5 μL of 10% (v/v) LC-MS grade formic acid (Fisher Scientific) to a final concentration of 1% (v/v). Product analyses were performed by liquid chromatography-mass spectrometry (LC-MS) using an Agilent 1290 infinity II LC system equipped with an Agilent 1290 multisampler and an Agilent 1290 high speed pump and connected to an Agilent 6550 accurate mass iFunnel quadrupole time of flight (Q-TOF) mass spectrometer. 1 μL of the reaction mixture was injected onto a 1.8 μm × 2.1 × 50 mm ZORBAX RRHD Eclipse Plus C18 column (Agilent). Solvent A consisted of HPLC grade water containing 0.1% (v/v) formic acid and solvent B consisted of MeCN containing 0.1% (v/v) formic acid. Peptides were separated using a stepwise gradient (0 min – 95% solvent A, 1.0 min – 80% solvent A, 3.0 min – 45% solvent A, 4.0 min – 45% solvent A, 5.0 min – 0% solvent A, 6.0 min – 0% solvent A, 7.0 min – 95% solvent A). This was followed by a 3 min post-run with 95% solvent A to re-equilibrate the column. All flow rates were 0.2 mL min^−1. A blank injection of HPLC grade water was carried out between each sample injection.

[2] = test system: KDM3B; assay: LC-MS demethylation activity assay, KDM3B; assay type: biochemical, human
Protocol: as §1, §2, §3

[3] = test system: KDM3C; assay: LC-MS demethylation activity assay, KDM3C; assay type: biochemical, human
Protocol: as §1, §2, §3

[4] = test system: KDM4A; assay: LC-MS demethylation activity assay, KDM4A; assay type: biochemical, human
Protocol: as §1, §2, §3

[5] = target: T1, KDM4D (Homo sapiens, UniProt Q6B0I6); assay: LC-MS demethylation activity assay, KDM4D; assay type: biochemical
T1 construct: KDM4AM1-L359,[38]; KDM4DM1-L359,[39]; KDM4EM1-R336,[30]; His6 (N); made in house; host or cells: Escherichia coli
T1 sequence (Q6B0I6 1-359): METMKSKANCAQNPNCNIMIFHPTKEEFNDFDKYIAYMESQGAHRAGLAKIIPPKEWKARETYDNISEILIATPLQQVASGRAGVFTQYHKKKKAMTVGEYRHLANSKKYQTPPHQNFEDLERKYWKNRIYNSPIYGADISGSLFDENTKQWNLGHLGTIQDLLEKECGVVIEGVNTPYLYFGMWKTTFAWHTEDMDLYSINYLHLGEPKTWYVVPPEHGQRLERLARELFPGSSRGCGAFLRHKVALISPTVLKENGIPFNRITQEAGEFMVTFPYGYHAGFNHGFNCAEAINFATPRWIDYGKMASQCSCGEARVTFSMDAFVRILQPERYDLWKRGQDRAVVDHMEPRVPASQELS
Protocol: as §1, §2, §3

[6] = target: T2, KDM4E (Homo sapiens, UniProt B2RXH2); assay: LC-MS demethylation activity assay, KDM4E; assay type: biochemical
T2 construct: KDM4DM1-L359,[39]; KDM4EM1-R336,[30]; His6 (N); made in house; host or cells: Escherichia coli
T2 sequence (B2RXH2 1-336): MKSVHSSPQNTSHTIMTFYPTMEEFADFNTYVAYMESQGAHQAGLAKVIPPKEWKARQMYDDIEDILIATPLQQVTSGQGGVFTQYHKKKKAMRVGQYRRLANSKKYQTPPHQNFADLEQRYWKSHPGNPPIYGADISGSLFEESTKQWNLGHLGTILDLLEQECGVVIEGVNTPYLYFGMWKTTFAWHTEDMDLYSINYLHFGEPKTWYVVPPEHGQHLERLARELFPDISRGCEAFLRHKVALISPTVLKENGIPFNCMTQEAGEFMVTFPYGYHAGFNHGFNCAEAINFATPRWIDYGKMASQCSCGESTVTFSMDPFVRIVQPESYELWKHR
Protocol: as §1, §2, §3

[7] = test system: KDM5D; assay: LC-MS demethylation activity assay, KDM5D; assay type: biochemical, human
Protocol: as §1, §2, §3

[8] = test system: KDM6B; assay: LC-MS demethylation activity assay, KDM6B; assay type: biochemical, human
Protocol: as §1, §2, §3

SAPATGGVKmeKPHRYRPGTVAL [Peptide H3K36me, histone H3 residues 28-48 peptide with mono-methylated K36; control, reference compound]
● [red]: KDM3A demethylation activity, M [1] | KDM3B demethylation activity, M [2] | KDM3C demethylation activity, M [3] | KDM4A demethylation activity, M [4] | KDM4D demethylation activity, M [5] | KDM4E demethylation activity, M [6] | KDM5D demethylation activity, M [7] | KDM6B demethylation activity, M [8]

KKKAKKmeAGATAGKRK [Peptide H1.3K25me, 15-mer linker histone H1.3 residues 20-34 peptide, mono-methylated K25]
● [red]: KDM3A demethylation activity, M [1] | KDM3B demethylation activity, M [2] | KDM3C demethylation activity, M [3] | KDM4A demethylation activity, M [4] | KDM4D demethylation activity, M [5] | KDM4E demethylation activity, M [6] | KDM5D demethylation activity, M [7] | KDM6B demethylation activity, M [8]
